{"source": "ChEMBL document CHEMBL1158649", "about": "“Constituents of Pachygone ovata and Pharmacological Action of its Major Leaf Alkaloid” (J Nat Prod, 1979)", "key": {"[1]": {"assay": "Potentiation of amphetamine-induced lethal activity in Wistar albino rat assessed as mortality after 4 days", "type": "organism-based", "conditions": "in vivo, read-out: Activity"}, "[2]": {"system": "Hoplobatrachus tigerinus", "assay": "Induction of tetanic convulsion in frog at 40 mg/kg dosed in ventral lymph sac", "type": "functional, organism-based", "parameters": "dose 40 mg/kg"}, "[3]": {"assay": "Acute toxicity in ip dosed mouse", "type": "organism-based", "conditions": "in vivo"}, "[4]": {"system": "Mus musculus", "assay": "Effect on central nervous system in mouse assessed as behavioral activity at 10 to 20 mg/kg, ip", "type": "functional, organism-based"}, "[5]": {"system": "Mus musculus", "assay": "Effect on behavioral activity in mouse assessed as convulsion-induced hind limb extension at 30 to 40 mg/kg, ip", "type": "functional, organism-based", "conditions": "Hindlimb"}, "[6]": {"system": "Mus musculus", "assay": "Potentiation of hexobarbitone-induced sleeping time in mouse at 5 mg/kg, ip", "type": "functional", "conditions": "route intraperitoneal"}, "[7]": {"system": "Mus musculus", "assay": "Potentiation of hexobarbitone-induced sleeping time in mouse at 20 mg/kg, ip", "type": "functional", "conditions": "route intraperitoneal"}, "[8]": {"system": "Mus musculus", "assay": "Increase in locomotor activity in mouse at 10 mg/kg, ip after 30 mins by actophotometer", "type": "functional, organism-based", "parameters": "dose 10 mg/kg"}, "[9]": {"system": "Rattus norvegicus", "assay": "Increase in rectal temperature in Wistar albino rat at 5 mg/kg, ip by telethermometer relative to control", "type": "functional", "conditions": "route intraperitoneal"}, "[10]": {"system": "Rattus norvegicus", "assay": "Increase in rectal temperature in Wistar albino rat at 10 mg/kg, ip by telethermometer relative to control", "type": "functional", "conditions": "route intraperitoneal"}, "[11]": {"system": "Rattus norvegicus", "assay": "Increase in rectal temperature in Wistar albino rat at 20 mg/kg, ip by telethermometer relative to control", "type": "functional", "conditions": "route intraperitoneal"}, "[12]": {"system": "Rattus norvegicus", "assay": "Antinociceptive activity in Wistar albino rat assessed as increase in latent period of tail flick response at 10 mg/kg, ip by tail-hot wire technique", "type": "functional", "conditions": "route intraperitoneal"}, "[13]": {"system": "Rattus norvegicus", "assay": "Antinociceptive activity in Wistar albino rat assessed as increase in latent period of tail flick response at 20 mg/kg, ip by tail-hot wire technique", "type": "functional", "conditions": "route intraperitoneal"}, "[14]": {"organism": "Mus musculus", "assay": "Effect on behavioral activity in mouse in presence of mephenesin", "type": "functional, organism-based"}, "[15]": {"assay": "Toxicity in Wistar albino rat assessed as mortality after 4 days", "type": "organism-based", "conditions": "in vivo, read-out: Activity"}, "[16]": {"system": "Mus musculus", "assay": "Induction of hypnosis in mouse at 100 mg/kg, ip", "type": "functional", "conditions": "route intraperitoneal"}}, "note": "Calls of active or inactive are those of the source. The rule behind the calls is not given here."}
{"compound": "COc1ccc(C[C@H]2c3cc(O)c(OC)cc3CCN2C)cc1O", "note": "[(S)-RETICULINE]", "values": [{"measurement": "mortality at 96 h", "setting": "[1]", "result": 60, "unit": "%"}, {"measurement": "Activity", "setting": "[2]", "result": "Active"}, {"measurement": "LD50", "setting": "[3]", "result": 56, "unit": "mg/kg"}, {"measurement": "Activity", "setting": "[4]", "result": "Active"}, {"measurement": "Activity", "setting": "[5]", "result": "Active"}, {"measurement": "Activity", "setting": "[6]", "result": 56.2, "unit": "min"}, {"measurement": "Activity", "setting": "[7]", "result": 23.7, "unit": "min"}, {"measurement": "Activity", "setting": "[8]", "result": "Active"}, {"measurement": "Activity", "setting": "[9]", "result": 0.36, "unit": "°C"}, {"measurement": "Activity", "setting": "[10]", "result": 0.69, "unit": "°C"}, {"measurement": "Activity", "setting": "[11]", "result": 1.1, "unit": "°C"}, {"measurement": "Activity", "setting": "[12]", "result": 7.8, "unit": "s"}, {"measurement": "Activity", "setting": "[13]", "result": 11.9, "unit": "s"}]}
{"compound": "Cc1ccccc1OCC(O)CO", "note": "(stereo unspecified)", "values": [{"measurement": "Activity", "setting": "[14]", "result": "inactive"}]}
{"compound": "CC(N)Cc1ccccc1", "note": "(stereo unspecified) [AMPHETAMINE]", "values": [{"measurement": "mortality at 96 h", "setting": "[15]", "result": 10, "unit": "%"}]}
{"compound": "CN1C(=O)NC(=O)C(C)(C2=CCCCC2)C1=O", "note": "(stereo unspecified) [HEXOBARBITAL]", "values": [{"measurement": "Activity", "setting": "[16]", "result": 31.3, "unit": "min"}]}
